Measured values taken from patent publication US9301910B2, “Fragrant formulations, methods of manufacture thereof and articles comprising the same” (GFBiochemicals Limited, priority 2010, dated 2016).
One block for each molecule: values may come before it.

Key:
Type in all cases: physicochemical
[1] = Miscibility of alkyl ketal esters with water; conditions: for miscibility with water: miscibility assessed at 25° C unless stated otherwise; for miscible in water to the extent of: parts of ester, balance to 100 parts is water (1 per 99, 2.5 in 97.5, 5 per 95)
Description: (§1) Unless stated otherwise, miscibility is assessed at 25° C.

[2] = Miscibility of alkyl ketal esters with organic compounds; conditions: parts of the organic compound in 80 parts of the alkyl ketal ester; organic compounds as listed in the block
Description: as §1

[3] = Compatibility between waxes and alkyl ketal esters (melt, cool to room temperature)
Description: Compatibility between various waxes and the alkyl ketal esters was first determined as detailed below. Table 10 below details the fragrant formulations for 10 different candles (Examples 116-125) that contain the fragrant composition.
Beeswax and Et-LGK were weighed into a vessel in a 50/50 weight ratio and heated to 80° C. to form a uniform molten mixture.
Gulf Wax brand of household paraffin wax for canning and candlemaking (distributed by Royal Oak Enterprises) was used in these experiments.

[4] = Dissolution of vanillin in alkyl ketal esters
Description: […] […] Dissolution is much quicker at 80° C.
Vanillin was dissolved at 25% solids by weight in Et-LPK with slight heating (80° C.).

[5] = Compatibility between waxes and alkyl ketal esters (melt, cool to room temperature); conditions: 25/75 weight ratio of Et-LGK to beeswax, 80° C, cooled
[6] = NatureWax C-1 / ester 90/10 weight ratio, 80° C, cooled
[7] = NatureWax C-3 / ester 90/10 weight ratio, 80° C, cooled
[8] = NatureWax P-1 / ester 75/25 weight ratio, 80° C, cooled
[9] = beeswax / ester 50/50 weight ratio, melted at 80° C, cooled to room temperature
[10] = carnauba wax / ester 50/50 weight ratio, 120° C, cooled
[11] = paraffin wax / ester 50/50 weight ratio, 80° C, cooled to room temperature
[12] = stearic acid / ester 50/50 weight ratio, 80° C, cooled to room temperature
[13] = vanillin at 10% solids by weight in the ester, room temperature
[14] = candelilla wax / ester 50/50 weight ratio, 120° C, cooled
[15] = paraffin wax / ester 75/25 weight ratio, 80° C, cooled to room temperature

Structure (SMILES): CCOC(=O)CCC1(C)OCC(CO)O1 (stereo not shown) [Et-LGK, glycerol ketal of ethyl levulinate]
- miscibility with water [1]: miscible in water in all proportions
- dissolves or is miscible with organic compounds to the extent of [2]: at least 20 parts
- layers upon cooling ([3]; 25/75 Et-LGK to stearic acid by weight, 80° C, cooled): single homogenous wax layer
- layers upon cooling [3, 6]: single homogenous wax layer
- layers upon cooling [3, 7]: single homogenous soft wax layer
- layers upon cooling [3, 8]: single homogenous wax layer
- layers upon cooling [3, 9]: Two layers formed
- layers upon cooling ([3]; candelilla wax / ester 75/25 weight ratio, 120° C, cooled to room temperature): Two layers formed
- layers upon cooling ([3]; candelilla wax / ester 90/10 weight ratio, 120° C, cooled): single homogenous wax layer
- layers upon cooling [3, 10]: Two layers formed
- layers upon cooling ([3]; carnauba wax / ester 75/25 weight ratio, 120° C, cooled): single homogenous wax layer
- layers upon cooling [3, 11]: Two layers formed
- layers upon cooling ([3]; paraffin wax / ester 90/10 weight ratio, 80° C, cooled to room temperature): single homogenous wax layer
- layers upon cooling [3, 12]: Two layers formed
- dissolution of vanillin [4, 13]: clear uniform mixture
- layers upon cooling [5]: single homogenous wax layer

Structure (SMILES): CCOC(=O)CC1(C)OCC(CO)O1 (stereo not shown) [Et-AcAcGK]
- miscibility with water [1]: miscible with water in all proportions

Structure (SMILES): CCOC(=O)CCC1(C)OCC(C)O1 (stereo not shown) [Et-LPK, propylene glycol ketal of ethyl levulinate]
- miscible in water to the extent of [1]: 2.5 parts
- dissolves or is miscible with organic compounds to the extent of [2]: at least 20 parts
- layers upon cooling [3, 6]: single homogenous wax layer
- layers upon cooling [3, 7]: single homogenous wax layer
- layers upon cooling [3, 8]: single homogenous wax layer
- layers upon cooling [3, 9]: single homogenous wax layer
- layers upon cooling [3, 14]: single homogenous wax layer
- layers upon cooling [3, 10]: single homogenous wax layer
- layers upon cooling [3, 11]: single homogenous wax layer
- layers upon cooling [3, 15]: single homogenous wax layer
- layers upon cooling [3, 12]: single homogenous wax layer
- dissolution of vanillin [4, 13]: clear uniform mixture
- dissolution of vanillin ([4]; vanillin at 25% solids by weight in the ester, slight heating (80° C)): clear uniform solutions hot and stayed as a clear uniform mixture at room temperature initially
- precipitation of vanillin on standing ([4]; vanillin at 25% solids by weight, dissolved at 80° C, then room temperature): Within an hour, signs of precipitation at room temperature appeared

Structure (SMILES): CCCCOC(=O)CCC1(C)OCC(CO)O1 (stereo not shown) [Bu-LGK, glycerol ketal of butyl levulinate]
- miscible in water to the extent of [1]: 1 parts
- dissolves or is miscible with organic compounds to the extent of [2]: at least 20 parts
- layers upon cooling ([3]; NatureWax C-1 / ester 50/50 weight ratio, 80° C, cooled): single homogenous wax layer
- layers upon cooling [3, 7]: single homogenous wax layer
- layers upon cooling ([3]; NatureWax P-1 / ester 50/50 weight ratio, 80° C, cooled): single homogenous wax layer
- layers upon cooling [3, 9]: single homogenous wax layer
- layers upon cooling [3, 14]: single homogenous wax layer
- layers upon cooling [3, 10]: single homogenous wax layer
- layers upon cooling [3, 15]: Two layers formed
- dissolution of vanillin ([4]; vanillin at 25% solids by weight in the ester, room temperature): initially appeared to be insoluble but over the course of five days, the vanillin dissolved, resulting in a clear uniform mixture

The remaining lines, values ahead:

- miscibility with water [1]: miscible with water in all proportions
Structure (SMILES): COC(=O)CCC1(C)OCC(CO)O1 (stereo not shown) [methyl-LGK]

- miscible in water to the extent of [1]: 1 parts
Structure (SMILES): CCCOC(=O)CCC1(C)OCC(CO)O1 (stereo not shown) [n-propyl-LGK]

- miscible in water to the extent of [1]: 5 parts
Structure (SMILES): CCOC(=O)CCC1(C)OCCO1 [ethyl-LEK]

- miscibility with water [1]: miscible with water in all proportions
Structure (SMILES): COC(=O)CC1(C)OCC(CO)O1 (stereo not shown) [Me-AcAcGK]

- dissolves or is miscible with organic compounds to the extent of [2]: at least 20 parts
Structure (SMILES): CCCCOC(=O)CCC1(C)OCC(C)O1 (stereo not shown) [n-butyl-LPK]
